Assay results as given in ChEMBL document CHEMBL1201862, “PubChem BioAssay data set” (2004).
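All cell lines were grown in 96-well plates and treated with compound for 48 hours. GI50: concentration for 50% inhibition of growth.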 The source made the active and inactive calls. Rule as the data show it: active = GI50 up to about 1.1 µM and inactive = higher.

Columns and labels:
Assay in all cases: DTP human tumour cell line panel, 48 h
MDA-N = system: MDA-N
EKVX = system: EKVX
UO-31 = system: UO-31
SK-MEL-28 = system: SK-MEL-28
COLO 205 = system: COLO 205
SW-620 = system: SW-620
OVCAR-8 = system: OVCAR-8
M14 = system: M14
OVCAR-3 = system: OVCAR-3
IGROV-1 = system: IGROV-1
SNB-75 = system: SNB-75
MOLT-4 = system: MOLT-4
OVCAR-4 = system: OVCAR-4
Malme-3M = system: Malme-3M
HOP-62 = system: HOP-62
SN12C = system: SN12C
PC-3 = system: PC-3
Hs-578T = system: Hs-578T
SF-539 = system: SF-539
MDA-MB-231 = system: MDA-MB-231

Measured: GI50

O=C(O)CN(CC(=O)O)c1ccccc1
inactive: MDA-N 97.5 µM | EKVX > 100 µM | UO-31 > 100 µM | SK-MEL-28 > 100 µM | COLO 205 > 100 µM | SW-620 > 100 µM | OVCAR-8 > 100 µM | M14 > 100 µM | OVCAR-3 75.2 µM | IGROV-1 > 100 µM | SNB-75 > 100 µM | MOLT-4 > 100 µM | OVCAR-4 81.7 µM | Malme-3M 45.8 µM | HOP-62 > 100 µM | SN12C > 100 µM | PC-3 56 µM | Hs-578T 80 µM | SF-539 > 100 µM | MDA-MB-231 92.3 µM

CCOC(=O)C(NC(=O)CC)(Nc1ccc(S(=O)(=O)Nc2nc(C)cc(C)n2)cc1)C(F)(F)F (stereo not given)
inactive: MDA-N > 100 µM | EKVX > 100 µM | UO-31 > 100 µM | SK-MEL-28 > 100 µM | COLO 205 > 100 µM | SW-620 > 100 µM | OVCAR-8 > 100 µM | M14 > 100 µM | OVCAR-3 > 100 µM | IGROV-1 > 100 µM | SNB-75 > 100 µM | MOLT-4 > 100 µM | OVCAR-4 > 100 µM | Malme-3M > 100 µM | HOP-62 > 100 µM | SN12C > 100 µM | PC-3 > 100 µM | Hs-578T > 100 µM | SF-539 > 100 µM | MDA-MB-231 > 100 µM

CC1(C)C(=O)C2(OS(=O)(=O)C(F)(F)F)CCC1C2 (stereo not given)
inactive: MDA-N > 100 µM | EKVX > 100 µM | UO-31 > 100 µM | SK-MEL-28 > 100 µM | COLO 205 > 100 µM | SW-620 > 100 µM | OVCAR-8 > 100 µM | M14 > 100 µM | OVCAR-3 > 100 µM | IGROV-1 > 100 µM | SNB-75 > 100 µM | MOLT-4 > 100 µM | OVCAR-4 > 100 µM | Malme-3M > 100 µM | HOP-62 > 100 µM | SN12C > 100 µM | PC-3 > 100 µM | Hs-578T > 100 µM | SF-539 > 100 µM | MDA-MB-231 > 100 µM

CCOC(=O)C(C)c1nc2cc(N3CCOCC3)c(F)cc2[nH]c1=O (stereo not given)
inactive: MDA-N > 100 µM | EKVX > 100 µM | UO-31 > 100 µM | SK-MEL-28 > 100 µM | COLO 205 > 100 µM | SW-620 > 100 µM | OVCAR-8 > 100 µM | M14 > 100 µM | OVCAR-3 > 100 µM | IGROV-1 > 100 µM | SNB-75 > 100 µM | MOLT-4 > 100 µM | OVCAR-4 > 100 µM | Malme-3M > 100 µM | HOP-62 > 100 µM | SN12C > 100 µM | PC-3 > 100 µM | Hs-578T > 100 µM | SF-539 > 100 µM | MDA-MB-231 > 100 µM
